Values of other authors, collected in article PMC12736226, “Acid Versus Amide—Facts and Fallacies: A Case Study in Glycomimetic Ligand Design” (Molecules, 2025).

target: T1, E-selectin (Homo sapiens, UniProt P16581); test: microscale thermophoresis (MST); assay type: binding; settings: affinity data also reported in Ref. 25; read-out: Affinity KD MST [μM] (95% CI)
T1 construct: gene SELE; soluble extracellular lectin-domain fragment with Ca2+
T1 sequence (P16581 22-301): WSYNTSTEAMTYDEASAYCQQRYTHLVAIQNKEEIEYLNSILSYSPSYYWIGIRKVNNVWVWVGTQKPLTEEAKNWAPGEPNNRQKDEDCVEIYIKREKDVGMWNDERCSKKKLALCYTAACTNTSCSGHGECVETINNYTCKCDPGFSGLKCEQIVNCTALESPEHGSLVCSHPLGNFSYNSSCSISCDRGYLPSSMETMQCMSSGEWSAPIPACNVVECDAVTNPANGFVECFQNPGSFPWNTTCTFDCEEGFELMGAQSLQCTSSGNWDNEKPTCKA
From the text: microscale thermophoresis (MST) on E-selectin

Row | SMILES | Kd [µM]
1 | C[C@@H]1O[C@@H](O[C@@H]2CCCC[C@H]2O[C@@H]2O[C@H](CO)[C@H](O)[C@H](O[C@@H](CC3CCCCC3)C(N)=O)[C@H]2O)[C@@H](O)[C@H](O)[C@@H]1O [3a] | 166
2 | CNC(=O)[C@H](CC1CCCCC1)O[C@H]1[C@@H](O)[C@@H](CO)O[C@@H](O[C@@H]2CCCC[C@H]2O[C@@H]2O[C@@H](C)[C@@H](O)[C@@H](O)[C@@H]2O)[C@@H]1O [3b] | 112
3 | CCNC(=O)[C@H](CC1CCCCC1)O[C@H]1[C@@H](O)[C@@H](CO)O[C@@H](O[C@@H]2CCCC[C@H]2O[C@@H]2O[C@@H](C)[C@@H](O)[C@@H](O)[C@@H]2O)[C@@H]1O [3c] | 109
4 | C[C@@H]1O[C@@H](O[C@@H]2CCCC[C@H]2O[C@@H]2O[C@H](CO)[C@H](O)[C@H](O[C@@H](CC3CCCCC3)C(=O)N3CC(C)(C)C3)[C@H]2O)[C@@H](O)[C@H](O)[C@@H]1O [3i] | 38.2
5 | CC(=O)N[C@H]1[C@H]([C@H](O)[C@H](O)CO)O[C@@](O[C@H]2[C@@H](O)[C@@H](CO)O[C@@H](O[C@H]3[C@H](O[C@@H]4O[C@@H](C)[C@@H](O)[C@@H](O)[C@@H]4O)[C@@H](NC(C)=O)C(O)O[C@@H]3CO)[C@@H]2O)(C(=O)O)C[C@@H]1O (stereo partly drawn) [compound 1, Sialyl Lewis^x] | 873

Molecules with a lower Kd, results first:

Row | Kd [µM] | SMILES
6 | 34.6 | C[C@@H]1O[C@@H](O[C@@H]2CCCC[C@H]2O[C@@H]2O[C@H](CO)[C@H](O)[C@H](O[C@@H](CC3CCCCC3)C(=O)N(C)C)[C@H]2O)[C@@H](O)[C@H](O)[C@@H]1O [3d]
7 | 21.4 | C[C@@H]1O[C@@H](O[C@@H]2CCCC[C@H]2O[C@@H]2O[C@H](CO)[C@H](O)[C@H](O[C@@H](CC3CCCCC3)C(=O)N3CCCC3)[C@H]2O)[C@@H](O)[C@H](O)[C@@H]1O [3e]
8 | 17 | C[C@@H]1O[C@@H](O[C@@H]2CCCC[C@H]2O[C@@H]2O[C@H](CO)[C@H](O)[C@H](O[C@@H](CC3CCCCC3)C(=O)N3CCC3)[C@H]2O)[C@@H](O)[C@H](O)[C@@H]1O [3f]
9 | 16.2 | C[C@@H]1O[C@@H](O[C@@H]2CCCC[C@H]2O[C@@H]2O[C@H](CO)[C@H](O)[C@H](O[C@@H](CC3CCCCC3)C(=O)N3CC(c4ccccc4)C3)[C@H]2O)[C@@H](O)[C@H](O)[C@@H]1O [3h]
